In assay [1] the test system is M. tuberculosis H37Rv. Put plainly: Microplate Alamar Blue assay (MABA) MIC. Type of assay: cell-based, Mycobacterium tuberculosis. (In general: Alamar Blue is a resazurin reagent that responds to reducing activity.)
The subject of assay [2] is M. tuberculosis (Erdman and H37Rv) in J774 macrophages. Briefly: Macrophage assay: growth of M. tuberculosis in IFN-γ activated J774 macrophages. Type of assay: cell-based, Mycobacterium tuberculosis.
For assay [3], the system named is M. tuberculosis H37Rv. Briefly: Chronic TB infection in guinea pigs, adjunctive treatment with HRZ. Type of assay: in vivo, guinea pig. The note with it: added to the standard regimen HRZ, after 6 weeks of treatment.
For assay [4], the system named is mPTPB transfected Raw264.7 cells. Put plainly: IFN-γ induced Erk1/2 phosphorylation in transfected Raw264.7 macrophages. Type of assay: cell-based, mouse. Here is the method:
Raw264.7 mouse macrophages were cultured in Dulbecco's modified Eagle's medium (DMEM) supplemented with 10% FBS (Invitrogen), penicillin (50 units/mL), and streptomycin (50 μg/mL) under a humidified atmosphere containing 5% CO2 at 37° C. Transfected Raw264.7 cells (Vector, WT-mPTPB) were seeded in a 12-well plate at a density of 4×10^4 cells/well. The following day cells were treated with mPTPB inhibitor 11a for 1 hour, then stimulated with IFN-γ (200 U/ml) for 1 hour. Subsequently, the cells were washed with ice-cold phosphate buffered saline, and lysed with lysis buffer on ice for 30 minutes. Cell lysate was then cleared by centrifuging at 13,000 rpm for 15 minutes. The phosphorylation of ERK1/2 was detected by Western blotting.

Regarding `Cc1c(Br)cc(NC(=O)CS(=O)(=O)O)cc1Br`, the “Activity in standard MIC assay” value in assay [1] was “devoid of activity”. Also, in assay [1] (Mycobacterium tuberculosis, H37RV, minimum inhibitory concentration, read-out: In vitro anti-Mtb activity MABA-MIC H37Rv), the MIC was above 10 µM. The “Anti-Mtb activity in infected macrophages” value in assay [2] (J774A.1 macrophages, low micromolar concentrations) is recorded as “markedly decrease bacterial load”. The IC90 in assay [2] (Mycobacterium tuberculosis, J774, IC90 in macrophages activated with interferon-γ, read-out: In vitro anti-Mtb activity, Mtb-infected macrophages (IC90)) is 1380 nM. Also, the “Further reduction of mean lung CFU relative to HRZ” value in assay [3] was 0.14 log10.

As for `O=C(C(c1ccccc1)S(=O)(=O)O)N1CCCC2CCCCC21` (stereo not shown) [Compound L319N53], the “Erk1/2 phosphorylation in mPTPB transfected Raw264.7 cells” value in assay [4] (8 nM, 16 nM, and 32 nM) is listed as “increased Erk1/2 phosphorylation”. For the same molecule, the “Erk1/2 phosphorylation in vector cells” value in assay [4] (vector Raw264.7 cells) is reported as “no effect”.

One may read the MIC as the least concentration at which growth counts as inhibited. Broadly, the IC90 is the point of the concentration-response curve where the effect stands at 90%.
